Results from patent US20260102347A1, “Sulfur-Containing Ionizable Lipids for the Delivery of Therapeutic Agents” (NanoVation Therapeutics Inc., priority 2022, published 2026).

Assays:
[1] = test system: liver; assay: In vivo analysis in CD-1 mice: luciferase mRNA-LNP, luminescence in the liver; details: LNP 50/10/38.5/1.5 mol % ionizable lipid/DSPC/chol/PEG-DMG, N/P 6, mRNA encoding luciferase 1 mg/kg intravenous, 4 hours post-injection (FIG. 2A)
Experimental: (§1) Lipids 1 or 2 described herein, DSPC, cholesterol, and PEG-DMG, were dissolved in ethanol at the appropriate ratios to a final concentration of 10 mM total lipid. Nucleic acid (siRNA or mRNA) was dissolved in an appropriate buffer such as 25 mM sodium acetate pH 4 or sodium citrate pH 4 to a concentration necessary to achieve the appropriate amine-to-phosphate ratios. The aqueous and organic solutions were mixed using a rapid-mixing device as described in Kulkarni et al., 2018, ACS Nano, 12:4787 and Kulkarni et al., 2017, Nanoscale, 36:133347 (each incorporated herein by reference) at a flow rate ratio of 3:1 (v/v; respectively) and a total flow rate of 20 mL/min. The resultant mixture was dialyzed directly against 1000-fold volume of PBS pH 7.4. All formulations were concentrated using an Amicon™ centrifugal filter unit and analysed using the methods described below. LNP-mRNA encoding firefly luciferase were injected intravenously (tail-vein) into 6-8 week old CD-1 mice. Four hours following injection, the animals were euthanized and the liver and spleen and isolated. Tissue was homogenized in Glo Lysis buffer and a luciferase assay performed using the Steady Glo Luciferase assay kit (as per manufacturers recommendations). LNP formulations containing 50/10/38.5/1.5 mol % of ionizable lipids/DSPC/chol/PEG-DMG with a nitrogen-to-phosphorous ratio (N/P) of 6 and mRNA encoding luciferase were tested for in vivo transfection efficiency in the liver and spleen after injection to CD-1 mice. The mRNA dose was 1 mg/kg. Luminescence intensity in the liver and spleen was measured at 4 hours post-injection. The ionizable lipids were 1 and 5-32 (Table 1).

[2] = test system: spleen; assay: In vivo analysis in CD-1 mice: luciferase mRNA-LNP, luminescence in the spleen; details: LNP 50/10/38.5/1.5 mol % ionizable lipid/DSPC/chol/PEG-DMG, N/P 6, mRNA encoding luciferase 1 mg/kg intravenous, 4 hours post-injection (FIG. 2B)
Experimental: as §1

[3] = delivery of siRNA; relative to KC2; cited from earlier work

| SMILES | luminescence intensity per mg liver compared with the MC3 benchmark [1] | luminescence intensity per mg spleen compared with the MC3 benchmark [2] | siRNA required, times less than KC2 [3] |
| --- | --- | --- | --- |
| CCCCCCCCCC(=O)OC(CCCCCC(CCCCCC(CSCCCCCC)OC(=O)CCCCCCCCC)N(C)CCCCO)CSCCCCCC (centres unmarked) [lipid 27, 1,15-bis(Hexylthio)-8-((4-hydroxybutyl)(methyl)amino)pentadecane-2,14-diyl bis-(decanoate)] | higher | higher | – |
| CCCCCCCCCC(=O)OC(CCCCC(CCCCC(CSCCCCC)OC(=O)CCCCCCCCC)N(C)CCCCO)CSCCCCC (centres unmarked) [lipid 22, 7-((4-Hydroxybutyl)(methyl)amino)-1,13-bis(pentylthio)tridecane-2,12-diyl bis(decano-ate)] | higher | higher | – |
| CCCCCCSCC(CCCCCC(CCCCCC(CSCCCCCC)OC(=O)CCC1CCCCC1)OC(=O)CCCN(C)C)OC(=O)CCC1CCCCC1 (centres unmarked) [lipid 8, 8-((4-(Dimethylamino)butanoyl)oxy)-1,15-bis(hexylthio)pentadecane-2,14-diyl bis(3-cyclohexylpropanoate)] | higher | higher | – |
| CCCCCCCCC(=O)OC(CCCCCC(CCCCCC(CSCCCCC)OC(=O)CCCCCCCC)N(C)CCCCO)CSCCCCC (centres unmarked) [lipid 25, 8-((4-hydroxybutyl)(methyl)amino)-1,15-bis(pentylthio)pentadecane-2,14-diyl dinonano-ate] | higher | higher | – |
| CCCCCCCCCC(=O)OC(CCCCC(CCCCC(CSC1CCCCC1)OC(=O)CCCCCCCCC)OC(=O)CCCN(C)C)CSC1CCCCC1 (centres unmarked) [lipid 6, 1,13-bis(Cyclohexylthio)-7-((4-(dimethylamino)butanoyl)oxy)tridecane-2,12-diyl bis-(decanoate)] | higher | higher | – |
| CCCCC/C=C\C/C=C\CCCCCCCCC(CCCCCCCC/C=C\C/C=C\CCCCC)OC(=O)CCCN(C)C [MC3, DLin-MC3-DMA] | – | – | about 3 times |
| CCCCCCCCC(=O)OC(CCCCC(CCCCC(CSCCCCCCC)OC(=O)CCCCCCCC)N(C)CCCCO)CSCCCCCCC (centres unmarked) [lipid 24, 1,13-bis(Heptylthio)-7-((4-hydroxybutyl)(methyl)amino)tridecane-2,12-diyl dinonano-ate] | higher | higher | – |
| CCCCCCCCC(=O)OC(CCCCCC(CCCCCC(CSC1CCCCC1)OC(=O)CCCCCCCC)N(C)CCCCO)CSC1CCCCC1 (centres unmarked) [lipid 32, 1,15-bis(Cyclohexylthio)-8-((4-hydroxybutyl)(methyl)amino)pentadecane-2,14-diyl dinonanoate] | higher | higher | – |
| CCCCCCCCCC(=O)OC(CCCCCC(CCCCCC(CSCCCCCC)OC(=O)CN(C)C(=O)CCCCC)OC(=O)CCCN(C)C)CSCCCCCC (centres unmarked) [lipid 9, 8-((4-(dimethylamino)butanoyl)oxy)-14-((N-hexanoyl-N-methylglycyl)oxy)-1,15-bis-(hexylthio)pentadecan-2-yl decanoate] | higher | higher | – |
| CCCCCCCCC(=O)OC(CCCCCC(CCCCCC(CSC1CCCCC1)OC(=O)CCCCCCCC)OC(=O)CCCN(C)C)CSC1CCCCC1 (centres unmarked) [lipid 11, 1,15-bis(cyclohexylthio)-8-((4-(dimethylamino)butanoyl)oxy)pentadecane-2,14-diyl dinonanoate] | higher | – | – |
| CCCCCCCCC(=O)OC(CCCCCC(CCCCCC(CSCCCCCCC)OC(=O)CCCCCCCC)N(C)CCCCO)CSCCCCCCC (centres unmarked) [lipid 31, 1,15-bis(Heptylthio)-8-((4-hydroxybutyl)(methyl)amino)pentadecane-2,14-diyl dinonanoate] | higher | higher | – |
| CCCCCCCCCC(=O)OC(CCCCCC(CCCCCC(CSCCCCCC)OC(=O)CN(C)C(=O)CCCCC)N(C)CCCCO)CSCCCCCC (centres unmarked) [lipid 30, 14-((N-hexanoyl-N-methylglycyl)oxy)-1,15-bis(hexylthio)-8-((4-hydroxybutyl)(methyl)-amino)pentadecan-2-yl decanoate] | higher | higher | – |
| CCCCCCCCCC(=O)OC(CCCCC(CCCCC(CSCCCCCCC)OC(=O)CCCCCCCCC)N(C)CCCCO)CSCCCCCCC (centres unmarked) [lipid 23, 1,13-bis(Heptylthio)-7-((4-hydroxybutyl)(methyl)amino)tridecane-2,12-diyl bis(decano-ate)] | higher | higher | – |
| CCCCCCCCCC(=O)OC(CCCCCC(CCCCCC(CSCCCCC)OC(=O)CCCCCCCCC)N(C)CCCCO)CSCCCCC (centres unmarked) [lipid 26, 8-((4-hydroxybutyl)(methyl)amino)-1,15-bis(pentylthio)pentadecane-2,14-diyl bis-(decanoate)] | higher | higher | – |
| CCCCCCCCCC(=O)OC(CCCCCC(CCCCCC(CSC1CCCCC1)OC(=O)CCCCCCCCC)OC(=O)CCCN(C)C)CSC1CCCCC1 (centres unmarked) [lipid 10, 1,15-bis(cyclohexylthio)-8-((4-(dimethylamino)butanoyl)oxy)pentadecane-2,14-diyl bis(decanoate)] | higher | – | – |
| CCCCCCCCCC(=O)OC(CCCCCC(CCCCCC(CSCCCCCC)OC(=O)CCCCCCCCC)OC(=O)CCCN(C)C)CSCCCCCC (centres unmarked) [lipid 7, 8-((4-(Dimethylamino)butanoyl)oxy)-1,15-bis(hexylthio)pentadecane-2,14-diyl bis(decanoate)] | higher | higher | – |
